Results from patent publication US20030053967A1, “Use of 3,4-dihydroxy-mandelic acid for protecting against oxidative damage caused by ultra-violet light” (priority 2000, published 2003).

How the values were obtained:
[1] = accelerated autoxidation of lipids by air, Rancimat apparatus, soybean oil; details: for AOI in soybean oil at 100° C. with 0.05% test substance: soybean oil purified over alumina, AOI = IP(test)/IP(control); for AOI, soybean oil, 100° C.: single substance, c 0.025 % by wt.
Procedure: (§1) The test system used was the accelerated autoxidation of lipids by air with or without antioxidant using the Rancimat apparatus (Rancimat is a registered trademark of Metrohm AG, Herisau, Switzerland). […] In a control sample, only solvent was added. […] The conductivity of this aqueous solution was continuously measured and documented. The oxidation of (unsaturated) fats proceeds only very slowly for some time and then suddenly increases. The time to the increase is referred to as the induction period (IP). The following equation was used to calculate the antioxidative index (AOI): AOI=IP(with test solution/IP(control sample) The results for the experiment in soybean oil that has been purified over alumina grade N at 100° C. are shown in Table 2: The experiments were carried out as described under Example 2. […] The AOI values measured for the combinations were compared with the AOI values calculated according to the following formula: […]

[2] = 1,1-diphenyl-2-picrylhydrazyl test (DPPH test) for the removal of free radicals; type: biochemical; details: DPPH 100 μmol/l in methanol, absorption at 515 nm
Procedure: The activity of 3,4-dihydroxymandelic acid as free-radical scavenger was compared with that of conventional free-radical scavengers. For this purpose, the 1,1-diphenyl-2-picrylhydrazyl test (DPPH test) for the removal of free radicals was used.
1,1-Diphenyl-2-picrylhydrazyl (DPPH) was dissolved in methanol to a concentration of 100 μmol/l. A series of dilutions of 3,4-dihydroxymandelic acid, vitamin C, α-tocopherol and 2,6-di-tert-butyl-4-methylphenol were prepared in methanol. Methanol was used as the control. 2500 μl of the DPPH solution were mixed with 500 μl of each test solution and the decrease in absorption at 515 nm was read until the decrease was less than 2% per hour. The activity of the test substances as free-radical scavengers was calculated using the following equation:
Activity as free-radical scavenger (%)=100−(absorption of the test compounds)/(absorption of the control)×100.
The activity of the free-radical scavengers (%) in a series of dilutions of test compounds was used to calculate, for each test compound, the effective relative concentration EC50 (based on the starting concentration of DPPH, EC=c (test compound)/c(DPPH)) of a test compound at which 50% of the free radical DPPH had been removed.

[3] = accelerated autoxidation of lipids by air, Rancimat apparatus, squalene; details: for AOI in squalene at 80° C. with 0.005% of test substance: squalene purified over alumina, stabilized with 1 ppm α-tocopherol, 0.005% test substance; for AOI, squalene, 80° C.: single substance, c 0.0025 % by wt.
Procedure: as §1, with “squalene” for “soybean oil”, “N and stabilized with 1 ppm of α-tocopherol” for “N”, “80°” for “100°”, “3:” for “2:”

[4] = system: ultraviolet light-induced sebum oxidation (squalene hydroperoxide, SQOOH); assay: protective action against ultraviolet light-induced sebum oxidation on the skin of subjects; type: in vivo, human; details: back skin of 12 subjects, UV 320 to 400 nm, 10 joules/cm^2; for c(H2O2)/c(SQ): 2 mg/cm^2 topical (acid: 200 mg in 200 ml 1,3-butylene glycol twice daily for 2 days; tocopherol: 0.2% ethanolic, once before irradiation); for % inhibition compared with the untreated area: squalene hydroperoxide, 2 mg/cm^2 topical
Procedure: 200 mg of 3,4-dihydroxymandelic acid were dissolved in 200 ml of 1,3-butylene glycol (solution A). In addition, a 0.2% strength ethanolic solution of tocopherol was prepared (solution B). A dose of 2 mg/cm^2 of solution A was applied twice daily to the skin on the back of 12 subjects for 2 days in each case. Prior to the following irradiation, solution B was applied to a control area (2 mg/cm^2). The 2 treated and one untreated sites were irradiated with ultraviolet light (320 to 400 nm, 10 joules/cm^2). The test areas in each case were treated with 4 ml of ethanol for 2 min, the solutions were dried under nitrogen at room temperature and the residue was taken up in 1 ml of ethanol. The latter solutions were investigated by HPLC for their content of squalene (detection at 210 nm against standard) or squalene hydroperoxide (SQOOH, determination of the peroxide content using cytochrome C/luminol-enhanced chemiluminescence). The content of squalene peroxide was given relative to squalene in the form of picomols peroxide per fig of squalene.
The inhibition based on the untreated area was calculated using the following equation:
% inhibition=100·(cSQOOH untreated−cSQOOH, treated)/CSQOOH, untreated

Compound | AOI in soybean oil at 100° C. with 0.05% test substance [1] | EC50 (effective relative concentration at which 50% of the free radical DPPH had been removed, c(test compound)/c(DPPH)) [2] | AOI in squalene at 80° C. with 0.005% of test substance [3] | AOI, soybean oil, 100° C. [1] | AOI, squalene, 80° C. [3] | c(H2O2)/c(SQ) [4] | % inhibition compared with the untreated area [4]
Cc1cc(C(C)(C)C)c(O)c(C(C)(C)C)c1 [2,6-Di-tert-butyl-4-methylphenol] | 4.8 | 0.240 mol/mol | 38 |  |  |  | 
O=C(O)C(O)c1ccc(O)c(O)c1 (centres unmarked) [3,4-Dihydroxymandelic acid, 2-(3,4-dihydroxyphenyl)-2-hydroxyacetic acid] | 9.5 | 0.062 mol/mol | 34 | 5.4 | 15 | 618 ± 45 pmol/µg | 33 ± 7%
O=C1O[C@H]([C@@H](O)CO)C(O)=C1O [Vitamin C] | 1.2 | 0.270 mol/mol | 0.7 |  |  |  | 
Cc1c(C)c2c(c(C)c1O)CC[C@@](C)(CCC[C@H](C)CCC[C@H](C)CCCC(C)C)O2 [α-Tocopherol] | 5.1 | 0.250 mol/mol | 39 | 4.7 | 23 | 664 ± 19 pmol/µg | 28 ± 6%
